Experimental findings from patent publication US9969709B2, “Guanidinobenzoic acid ester compound” (Takeda Pharmaceutical Company Limited, priority 2013, dated 2018) are described below.

One assay relates to ICR mice. The assay is described as follows: Test of increase in fecal protein concentration using mice. The assay is classed as in vivo, mouse. The conditions noted are these: 5 mg/kg oral, male ICR mice, feces collected 3 to 9 hours after feeding started, control group = 1; for response vs control in vivo at 5 mg/kg: Mus musculus, po, 9 h, read-out: Fecal protein, Folds (vs. control). On the procedure: 2. Test of Increase in Fecal Protein Concentration Using Mice
For the experiment, 6-week old male ICR mice were used. The experiment was carried out in five mice per group. After fasting the mice for 15 hours, the control group was forcibly orally administered with a 0.5% methyl cellulose (MC) solution, and the test drug group was forcibly orally administered (5 mg/kg) with a solution or suspension obtained by dissolving or suspending the compound in the 0.5% MC solution. The fasting was stopped immediately thereafter, free feeding (CE-2) was started, and then the feces were collected from after 3 hours to after 9 hours, and weighed. All of the obtained feces were suspended in 6 mL of distilled water, and centrifuged at 1,940×g for 10 minutes. The protein concentration in the obtained supernatant was measured by a Bradford method, and the amount of the protein in 1 g of feces was calculated by dividing the protein concentration in the feces by the total weight of feces. Further, the efficacy was investigated from the ratio to the control group. For the compounds that were evaluated multiple times, the average values were calculated.
The results of the activities with an increase in Fecal Protein, assuming a value for the control group as 1, are shown in Table 2.

For assay [1], the target named is T1, human recombinant trypsin (rh-trypsin) (Homo sapiens, UniProt P07477).
T1 construct: purchased Wako Pure Chemical Industries, Ltd. 206-17171
Description: Trypsin inhibitory activity, human recombinant trypsin, BZiPAR fluorescent substrate. The assay is classed as biochemical. Particulars: 30 min at room temperature, read-out: r-h Trypsin inhibitory activity (IC50). The procedure:
(§1) 1. Confirmation of Trypsin Inhibitory Activity in Humans and Mice In the experiment, human recombinant trypsin (rh-trypsin; manufactured by Wako Pure Chemical Industries, Ltd.), cat. #206-17171) and mouse trypsin (m-trypsin; purified from the mouse small intestine contents by the present inventors) were used. The method for purifying m-trypsin from the contents of the mouse small intestine is shown below. The compound was dissolved in dimethyl sulfoxide (DMSO), and diluted to an arbitrary concentration (A). A was 100-fold diluted with a buffer (0.1 M Tris (pH 8.0), 0.15 M NaCl, 10 mM CaCl2, 0.05% Brij35) (B). The rh-trypsin was diluted with a buffer to 0.088 μg/mL, and for the m-trypsin, the purified fraction liquid was 50-fold diluted with the buffer (C). […] A BZiPAR solution (Rhodamine Reference Substrate) which is substrate for the trypsin enzyme was diluted with the buffer to […] (D). 5 μL of B, 5 μL of C, and 10 μL of D were added to a 384-well plate, and incubated at room temperature for 30 minutes. Fluorescent signals were detected at a maximum excitement (Ex)/fluorescent wavelength (Em)=497 nm/520 nm using a Tecan Safire Fluorometer. […] Based on the obtained inhibitory rates, the trypsin inhibitory activities (IC50 values, nM) were calculated from the non-linear regression.

Assay [2] has as its system T2, mouse trypsin (m-trypsin).
T2 construct: mouse trypsin (m-trypsin)
The assay is described as follows: Trypsin inhibitory activity, mouse trypsin purified from small intestine contents, BZiPAR fluorescent substrate. Type of assay: biochemical. The conditions noted are these: 30 min at room temperature.
From the text: 1. Confirmation of Trypsin Inhibitory Activity in Humans and Mice
In the experiment, human recombinant trypsin (rh-trypsin; manufactured by Wako Pure Chemical Industries, Ltd.), cat. #206-17171) and mouse trypsin (m-trypsin; purified from the mouse small intestine contents by the present inventors) were used. The method for purifying m-trypsin from the contents of the mouse small intestine is shown below.
The small intestine contents and the gastrointestinal tract obtained from 10 mice were homogenized in phosphate buffer saline (PBS) using Polytron, and subjected to centrifugation several times at 15,000×g for 10 minutes. The supernatant was mixed at 4° C. for 16 hours with a Benzamidine Sepharose 4 Fast Flow Resin (GE Healthcare: #17-5123-10). After washing the resin with PBS, m-trypsin was eluted with a glycine buffer (pH 3.0) to carry out purification. It was confirmed by Western blot analysis that the obtained purified fraction was recognized as an Anti-mouse Trypsin Antibody (Santa Cruz Biotechnology, Inc.: sc-67388). The method for measuring the trypsin inhibiting activity is shown below.
as §1, with “The” for “1. Confirmation of Trypsin Inhibitory Activity in Humans and Mice In the experiment, human recombinant trypsin (rh-trypsin; manufactured by Wako Pure Chemical Industries, Ltd.), cat. #206-17171) and mouse trypsin (m-trypsin; purified from the mouse small intestine contents by the present inventors) were used. The method for purifying m-trypsin from the contents of the mouse small intestine is shown below. The”

What is called IC50 is the midpoint of a concentration-inhibition curve.

Where a name gives a salt, the structure may show the parent alone.

Take `N=C(N)Nc1ccc(C(=O)Oc2ccc3c(C(=O)N(CC(=O)O)Cc4ccc(CC(=O)O)cc4)cccc3c2)cc1` [Example 17]: the response vs control in vivo at 5 mg/kg in the assay with ICR mice came to 270%. Besides, the IC50 in assay [1] was found to be 220 pM; in assay [2], 270 pM.

Regarding `N=C(N)Nc1ccc(C(=O)Oc2ccc3c(c2)CCC3CC(=O)N(CC(=O)O)Cc2csc(C(=O)O)c2)cc1` (stereo not drawn) [Example 49], the response vs control in vivo at 5 mg/kg in the assay with ICR mice is 207%. Besides, the IC50 in assay [1] was 370 pM; in assay [2] it was 450 pM.

With `N=C(N)Nc1ccc(C(=O)Oc2ccc3c(C(=O)N(CC(=O)O)Cc4ccc5sc(C(=O)O)cc5c4)cccc3c2)cc1` [Example 34], the response vs control in vivo at 5 mg/kg in the assay on ICR mice was determined as 207%. For the same molecule, the half-inhibitory concentration (IC50) in assay [1] came to 210 pM; in assay [2] it was 170 pM.

Consider `N=C(N)Nc1ccc(C(=O)Oc2ccc3cc(C(=O)N(CC(=O)O)Cc4cccc(C(=O)O)c4)ccc3c2)cc1` [Example 14], for which the response vs control in vivo at 5 mg/kg in the assay with ICR mice turned out to be 179%. For the same molecule, the IC50 in assay [1] came to 230 pM; in assay [2], 260 pM.

Take `N=C(N)Nc1ccc(C(=O)Oc2ccc3c(c2)CCCC3CC(=O)N(CC(=O)O)[C@@H](Cc2ccccc2)C(=O)O)cc1` (stereo partly drawn) [Example 22]: the response vs control in vivo at 5 mg/kg in the assay on ICR mice was 215%. In addition, the IC50 turned out to be 340 pM in assay [1] and 440 pM in assay [2].

For the molecule `C[C@H](C(=O)O)N(Cc1csc(C(=O)O)c1)C(=O)c1cccc2cc(OC(=O)c3ccc(NC(=N)N)cc3)ccc12` [Example 18], the response vs control in vivo at 5 mg/kg with ICR mice stood at 218%. The results for the IC50 in assay [1] and in assay [2] were 290 pM and 480 pM, respectively.

For the molecule `N=C(N)Nc1ccc(C(=O)Oc2ccc3cc(C(=O)N(CCC(=O)O)Cc4csc(C(=O)O)c4)ccc3c2)cc1` [Example 56], the response vs control in vivo at 5 mg/kg in the assay with ICR mice was 145%. In addition, the IC50 in assay [1] worked out at 350 pM; in assay [2], 590 pM.

Regarding `N=C(N)Nc1ccc(C(=O)Oc2ccc3c(c2)CCC(C(=O)N[C@@H](Cc2ccc(C(=O)O)cc2)C(=O)O)C3)cc1` (stereo partly drawn) [Example 35], the response vs control in vivo at 5 mg/kg with ICR mice amounted to 159%. The values for the IC50 in assay [1] and in assay [2] were 370 pM and 420 pM, respectively.

As to `N=C(N)Nc1ccc(C(=O)Oc2ccc3c(c2)CCC3CC(=O)N(CC(=O)O)[C@@H](Cc2ccccc2)C(=O)O)cc1` (stereo partly drawn) [Example 46], in the assay on ICR mice, the response vs control in vivo at 5 mg/kg was 184%. In addition, the IC50 in assay [1] is 250 pM; in assay [2], 230 pM.

Turning to `N=C(N)Nc1ccc(C(=O)Oc2ccc3c(c2)CCCC3CC(=O)N(Cc2ccccc2)CC(CC(=O)O)CC(=O)O)cc1` (stereo not drawn) [Example 44], the response vs control in vivo at 5 mg/kg with ICR mice is 172%. For the same molecule, the IC50 in assay [1] and in assay [2] was 200 pM throughout.

`N=C(N)Nc1ccc(C(=O)Oc2ccc3c(C(=O)N(CC(=O)O)Cc4cccc(CC(=O)O)c4)cccc3c2)cc1` [Example 42]: the response vs control in vivo at 5 mg/kg with ICR mice worked out at 204%. Moreover, the IC50 turned out to be 200 pM in assay [1] and 140 pM in assay [2].

As to `N=C(N)Nc1ccc(C(=O)Oc2ccc3c(C(=O)N(CC(=O)O)[C@@H](Cc4ccccc4)C(=O)O)cccc3c2)cc1` [Example 40], the response vs control in vivo at 5 mg/kg in the assay with ICR mice turned out to be 189%. Further, the IC50 in assay [1] worked out at 290 pM; in assay [2], 270 pM.

As to `C[C@H](C(=O)O)N(Cc1csc(C(=O)O)c1)C(=O)CC1CCCc2cc(OC(=O)c3ccc(NC(=N)N)cc3)ccc21` (stereo partly drawn) [Example 19], in the assay on ICR mice, the response vs control in vivo at 5 mg/kg stood at 251%. The IC50 came to 390 pM in assay [1] and 600 pM in assay [2].

For `N=C(N)Nc1ccc(C(=O)Oc2ccc3c(c2)CCCC3CC(=O)N2Cc3cc(C(=O)O)ccc3C[C@@H]2C(=O)O)cc1` (stereo partly drawn) [Example 30], the response vs control in vivo at 5 mg/kg in the assay with ICR mice is 168%. In addition, the 50% inhibitory concentration (IC50) in assay [1] stood at 250 pM; in assay [2], 280 pM.

Turning to `N=C(N)Nc1ccc(C(=O)Oc2ccc3cc(C(=O)N(CC(=O)O)[C@@H](Cc4ccccc4)C(=O)O)ccc3c2)cc1` [Example 39], the response vs control in vivo at 5 mg/kg in the assay on ICR mice stood at 108%. The results for the IC50 in assay [1] and in assay [2] were 180 pM and 130 pM, respectively.

Consider `C[C@H](C(=O)O)N(Cc1csc(C(=O)O)c1)C(=O)CC1CCCc2cc(OC(=O)c3ccc(NC(=N)N)cc3)ccc21` (single isomer, unassigned) [Example 7, 4-({({(1R)-6-[(4-carbamimidamidobenzoyl)oxy]-1,2,3,4-tetrahydronaphthalen-1-yl}acetyl) [(1R)-1-carboxyethyl]amino}methyl)thiophene-2-carboxylic acid or an epimer at position 1 of the 1,2,3,4-tetrahydronaphthalene], for which the response vs control in vivo at 5 mg/kg with ICR mice came to 183%. Also, the 50% inhibitory concentration (IC50) in assay [1] stood at 300 pM; in assay [2], 260 pM.

Regarding `N=C(N)Nc1ccc(C(=O)Oc2ccc3c(c2)CCCC3CC(=O)N(CCc2ccc(C(=O)O)cc2)CC(=O)O)cc1` (stereo not drawn) [Example 28], the response vs control in vivo at 5 mg/kg in the assay with ICR mice came out at 154%. Besides, the IC50 in assay [1] was 380 pM; in assay [2] it was 400 pM.

Consider `N=C(N)Nc1ccc(C(=O)Oc2ccc3c(c2)CCCC3CC(=O)N(CCC(=O)O)Cc2csc(C(=O)O)c2)cc1` (stereo not drawn) [Example 55], for which the response vs control in vivo at 5 mg/kg in the assay on ICR mice turned out to be 230%. The IC50 in assay [1] came to 350 pM; in assay [2] it was 470 pM.

With `N=C(N)Nc1ccc(C(=O)Oc2ccc3c(c2)CCCC3CC(=O)N(CC(=O)O)Cc2ccc(CC(=O)O)cc2)cc1` (stereo not drawn) [Example 26], the response vs control in vivo at 5 mg/kg in the assay with ICR mice is 170%. In addition, the IC50 stood at 330 pM in assay [1] and 340 pM in assay [2].

On to `Cl.N=C(N)Nc1ccc(C(=O)Oc2ccc3c(c2)CCCC3CC(=O)N(CC(=O)O)Cc2cccc(C(=O)O)c2)cc1` (single isomer, unassigned) [Example 6, 3-{[({(1R)-6-[(4-carbamimidamidobenzoyl)oxy]-1,2,3,4-tetrahydronaphthalen-1-yl}acetyl)(carboxymethyl)amino]methyl}benzoic acid or an enantiomer thereof], for which the “Fecal protein, Folds (vs. control)” value in the assay on ICR mice was 1.84. For the same molecule, the IC50 in assay [1] is 290 pM; in assay [2] it was 200 pM.

Turning to `N=C(N)Nc1ccc(C(=O)Oc2ccc3c(c2)CCCC3CC(=O)N(CC(=O)O)Cc2cccc(C(=O)O)c2)cc1` (single isomer, unassigned) [Example 5, 3-{[({(1R)-6-[(4-carbamimidamidobenzoyl)oxy]-1,2,3,4-tetrahydronaphthalen-1-yl}acetyl)(carboxymethyl)amino]methyl}benzoic acid or an enantiomer thereof], the response vs control in vivo at 5 mg/kg in the assay with ICR mice came out at 188%. The results for the IC50 in assay [1] and in assay [2] were 190 pM and 270 pM, respectively.

Take `N=C(N)Nc1ccc(C(=O)Oc2ccc3c(c2)CCC(C(=O)N(CC(=O)O)Cc2csc(C(=O)O)c2)C3)cc1` (stereo not drawn) [Example 4, 4-{[({6-[(4-carbamimidamidobenzoyl)oxy]-1,2,3,4-tetrahydronaphthalen-2-yl}carbonyl)(carboxymethyl)amino]methyl}thiophene-2-carboxylic acid monohydrochloride]: the response vs control in vivo at 5 mg/kg in the assay with ICR mice came out at 262%. The IC50 amounted to 430 pM in assay [1] and 610 pM in assay [2].
